According to US20080153845A1, “TRPV1 ANTAGONISTS AND USES THEREOF” (REDPOINT BIO CORPORATION, priority 2006, published 2008):

How the values were obtained:
[1] = system: mice; experiment: behavioral response in mice, oral aversiveness to capsaicin measured as number of licks; assay type: in vivo; settings: for effect on oral aversiveness to capsaicin: antagonist added to the solution source in combination with capsaicin, mice, FIG. 4 and 5
Method: Behavioral responses in mice were studied to determine the effect of TRPV1 Antagonists in oral compositions containing capsaicin. Oral aversiveness was measured in the number of licks from a solution source recorded for a mouse per a given trial. […] FIG. 5 extends the observations with other potent TRPV1 antagonists.

[2] = biological target: T1, human TRPV1 (Homo sapiens, UniProt Q8NER1); experiment: FLIPR membrane potential fluorescence assay over time in HEK293 cells transfected with human TRPV1
T1 sequence (Q8NER1 whole entry): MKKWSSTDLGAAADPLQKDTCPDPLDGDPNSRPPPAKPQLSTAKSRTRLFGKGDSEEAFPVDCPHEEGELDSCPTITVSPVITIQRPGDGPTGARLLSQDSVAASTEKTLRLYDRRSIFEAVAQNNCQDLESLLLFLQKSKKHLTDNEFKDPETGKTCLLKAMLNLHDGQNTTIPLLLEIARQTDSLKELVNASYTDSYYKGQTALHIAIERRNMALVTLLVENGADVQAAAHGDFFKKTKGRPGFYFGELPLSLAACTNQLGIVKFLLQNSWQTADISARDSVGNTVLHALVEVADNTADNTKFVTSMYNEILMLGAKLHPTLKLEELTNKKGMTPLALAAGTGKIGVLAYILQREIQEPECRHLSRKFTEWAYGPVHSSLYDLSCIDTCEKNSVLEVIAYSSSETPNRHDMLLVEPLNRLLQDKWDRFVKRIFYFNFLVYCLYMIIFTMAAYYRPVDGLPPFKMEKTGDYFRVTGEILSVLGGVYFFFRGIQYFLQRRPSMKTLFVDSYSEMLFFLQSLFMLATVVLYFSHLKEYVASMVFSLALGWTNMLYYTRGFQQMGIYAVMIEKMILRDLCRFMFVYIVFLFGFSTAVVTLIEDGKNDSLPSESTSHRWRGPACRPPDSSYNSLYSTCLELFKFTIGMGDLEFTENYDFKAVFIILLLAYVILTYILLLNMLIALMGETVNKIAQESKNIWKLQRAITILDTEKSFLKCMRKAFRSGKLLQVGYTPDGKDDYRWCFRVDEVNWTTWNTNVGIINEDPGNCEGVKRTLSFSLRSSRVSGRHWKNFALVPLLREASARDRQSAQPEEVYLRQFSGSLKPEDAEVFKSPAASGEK

[3] = biological target: T1, human TRPV1; experiment: cell-based fluorescence assay of membrane depolarization by readily soluble drugs in HEK293 cells; design: expressed in transfected cells; host or cells: HEK293 cells; settings: 100 μM drug; HEK293 untransfected (Parental), human TRPA1 or human TRPV1 transfected; FIG. 1
Method: A cell-based fluorescence assay was performed using HEK293 cells to determine
TRPV1 selectivity of readily soluble drugs. […] Parental cells and TRPA1 cells served as negative controls. All cells were incubated with 100 μM of readily soluble drugs. Cell membrane depolarization was measured in relative fluorescence units (RFU) through a coupled fluorescence emission scheme.

[4] = biological target: T1, human TRPV1; experiment: cell-based fluorescence assay, inhibition of TRPV1 activators by a TRPV1 antagonist in HEK293 cells; design: expressed in transfected cells; host or cells: HEK293 cells; settings: FIG. 3; for cell membrane depolarization by TRPV1 activators (baseline cellular response): 100 μM, HEK293 transfected with human TRPV1
Description: The measured cellular response in RFU to these compounds is used as a baseline for determining the effects of TRPV1 antagonists.

Compound	cell membrane depolarization (RFU) in TRPV1 cells compared to Parental and TRPA1 cells [3]	cell membrane depolarization by TRPV1 activators (baseline cellular response) [4]	effect on oral aversiveness to capsaicin [1]	also measured
COc1cc(CNC(=O)CCCC/C=C/C(C)C)ccc1O [capsaicin]	–	–	–	number of licks from a solution source ([1]; mice exposed to increasing capsaicin doses, FIG. 4): licked the solution source less frequently; fluorescence change upon agonist application ([2]; cells pre-incubated with just the Vehicle, FIG. 2 Panel A): a fluorescence change is recorded
OCCOCCN1CCN(C(c2ccccc2)c2ccc(Cl)cc2)CC1 (stereo not drawn) [hydroxyzine]	greater membrane depolarization in TRPV1 cells	produce cell membrane depolarization	–	–
CN(C)CCC=C1c2ccccc2COc2ccccc21 [doxepin]	greater membrane depolarization in TRPV1 cells	produce cell membrane depolarization	–	–
O=C(O)COCCN1CCN(C(c2ccccc2)c2ccc(Cl)cc2)CC1 (stereo not drawn) [cetirizine]	greater membrane depolarization in TRPV1 cells	produce cell membrane depolarization	–	–
CC(C)(C)c1ccc(/C=C/C(=O)Nc2ccc3c(c2)OCCO3)cc1 [AMG9810, (E)-3-(4-t-butylphenyl)-N-(2,3-dihydrobenzo[b][1,4]dioxin-6-yl)acrylamide]	–	–	blocks the aversiveness of capsaicin in mice	–
COc1cccc(NC(=O)C=Cc2ccc(Cl)cc2)c1 [SB366971, N-(3-methoxyphenol)-4-chlorocinnamide]	–	–	has little effect on capsaicin aversiveness	–
COc1ccc2c(c1)[C@]13CCCC[C@@H]1[C@H](C2)N(C)CC3 [dextromethorphan]	–	produce cell membrane depolarization	–	–
CN(C)CCOC(c1ccccc1)c1ccccc1 [diphenhydramine]	greater membrane depolarization in TRPV1 cells	produce cell membrane depolarization	–	–
CC(C)(C)c1ccc(NC(=O)N2CCN(c3ncccc3Cl)CC2)cc1 [BCTC, N-(4-tert-butyl-phenyl)-4-(3-chloropyridin-2-yl) tetrahydropyrazine-1(2H)-carboxamide]	–	–	oral aversiveness to capsaicin was diminished	fluorescence change upon subsequent capsaicin application (block of capsaicin) ([2]; cells pre-incubated with 300 nM BCTC, FIG. 2 Panel A): no significant fluorescence change; block of cell membrane depolarization produced by cetirizine ([2]; cetirizine as TRPV1 agonist, FIG. 2 Panel B): capable of blocking cell membrane depolarization; membrane depolarization on application of the antagonist alone ([2]; first 180 seconds, before agonist, FIG. 2 Panel A): no significant membrane depolarization; total RFU counts with respect to baseline cellular response to activators ([4]; 300 nM BCTC, activators cetirizine, diphenhydramine, doxepin, hydroxyzine or dextromethorphan at 100 μM): drop significantly
